Here are results for 13 compounds from patent US20110251379A1, “COMPOUNDS USEFUL FOR TREATING NEURODEGENERATIVE DISORDERS” (Satori Pharmaceuticals, Inc., priority 2010, published 2011).

SMILES strings stand for the structures. Where two headings read alike, the source gives them in different places.

Common to all, as to assay type: cell-based
One test concerns Aβ-40. Description: MSD Human (6E10) Ab 3-PLEX elisa, conditioned media of 2B7 cells: Aβ-40. The note with it: for IC50: Aβ-40 (superscript b). In outline: (§1)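 Confluent 2B7 cells were treated with compounds for 5 hours at 37° C in media with 1% DMSO. Conditioned media, diluted 1:1 in blocking buffer, was incubated overnight at 4 °C or 2 h at room temperature on MSD 6E10 plates. Aβ levels were read against seven-point standard curves, and IC50 was obtained from 4-parameter fits of percent vehicle.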

Another test deals with Aβ-42. Description: MSD Human (6E10) Ab 3-PLEX elisa, conditioned media of 2B7 cells: Aβ-42. The note with it: for IC50: Aβ-42 (superscript c). In outline:
as §1

The test system of another test is Aβ-38. Description: MSD Human (6E10) Ab 3-PLEX elisa, conditioned media of 2B7 cells: Aβ-38. The note with it: for IC50: Aβ-38 (superscript a). The essentials:
as §1

[1] abbreviates: Homo sapiens, read-out: IC50 range.
Where [2] appears, read: Homo sapiens, read-out: 50% reduction value.

The inhibition is the drop in the measured response relative to a control, in per cent.

In the test on Aβ-40 (Homo sapiens, Aβ-40, 20 μM), `CCNC(=O)O[C@H](C(C)C)C1C[C@@H](C)[C@H]2C(O1)[C@H](O)[C@@]1(C)C3CC[C@H]4C(C)(C)C(OC(=O)N5CCOCC5)CC[C@@]45C[C@@]35CC[C@]21C` (some centres unmarked) returned an inhibition at 20 µM of 25 to 75%. Moreover, the IC50 with Aβ-42 (setting [1]) and with Aβ-38 (setting [2]) was under 1000 nM throughout.

With `CC(=O)OCC1CC(C)C2C(O1)C(O)C1(C)C3CCC4C(C)(C)C(OC5OCC(O)C(O)C5O)CCC45CC35CCC21C` (centres unmarked) [drawing 1206], the “% Inh. (range)” value was “E^a (20 μM) E^b (20 μM) E^c (20 μM) (% inhibition of 25-75%)” with Aβ-40 (Aβ-40, 20 μM); “E^a (20 μM) E^b (20 μM) E^c (20 μM) (% inhibition of 25-75%)” with Aβ-42 (Aβ-42, 20 μM); “E^a (20 μM) E^b (20 μM) E^c (20 μM) (% inhibition of 25-75%)” with Aβ-38 (Aβ-38, 20 μM).

For `CCO[C@H](C(C)C)C1C[C@@H](C)[C@H]2C(O1)[C@H](O)[C@@]1(C)[C@@H]3CC[C@H]4C(C)(C)C(O)CC[C@@]45C[C@@]35CC[C@]21C` (some centres unmarked), the IC50 in the test on Aβ-40 (setting [2]), in the test on Aβ-42 (setting [2]) and with Aβ-38 (setting [2]) was 1000 to 10000 nM each time.

For the compound `CC(C)[C@@H](OC(=O)N1CCC1)C1C[C@@H](C)[C@H]2C(O1)[C@H](O)[C@@]1(C)C3CC[C@H]4C(C)(C)C(OC(=O)N5CCn6cnnc6C5)CC[C@@]45C[C@@]35CC[C@]21C` (some centres unmarked), the results for the IC50 with Aβ-40 (setting [2]), in the test on Aβ-42 (setting [2]) and in the test with Aβ-38 (setting [2]) were over 10000 nM, under 1000 nM and under 1000 nM, respectively.

`CC(=O)NCCC1C[C@@H](C)[C@H]2C(O1)[C@H](O)[C@@]1(C)C3CC[C@H]4C(C)(C)[C@@H](O)CC[C@@]45C[C@@]35CC[C@]21C` (some centres unmarked): the inhibition at 20 µM in the test with Aβ-40 (Homo sapiens, Aβ-40, 20 μM) was under 25%; in the test with Aβ-38 (Homo sapiens, Aβ-38, 20 μM), 25 to 75%. Moreover, in the test with Aβ-42 (setting [2]), the IC50 was 1000 to 10000 nM.

Consider `C[C@@H]1CC(CN(C)[C@@H](C)C(=O)O)OC2[C@H]1[C@@]1(C)CC[C@@]34C[C@@]35CC[C@H](O[C@H]3CN(C(=O)CC6CC6)CCO3)C(C)(C)[C@@H]5CCC4[C@]1(C)[C@H]2O` (some centres unmarked) [drawing 1142], for which the “% Inh. (range)” value with Aβ-40 (Aβ-40, 100 μM, 100 µM) is reported as “E^a (100 μM) E^b (100 μM) E^c (100 μM) (% inhibition of 25-75%)”. The inhibition at 100 µM with Aβ-42 (Homo sapiens, Aβ-42, 100 μM) is 25 to 75%; with Aβ-38 (Homo sapiens, Aβ-38, 100 μM), 25 to 75%.

In the case of `CC(C)O[C@@H](C1C[C@@H](C)[C@H]2C(O1)[C@H](O)[C@@]1(C)C3CC[C@H]4C(C)(C)C(O[C@H]5CN(C6COC6)CCO5)CC[C@@]45C[C@@]35CC[C@]21C)C(C)(C)O` (some centres unmarked), the IC50 is 1000 to 10000 nM in the test on Aβ-40 (setting [2]); 1000 to 10000 nM in the test with Aβ-40 (setting [1]); under 1000 nM in the test on Aβ-42 (setting [2]); under 1000 nM in the test on Aβ-42 (setting [1]); under 1000 nM in the test on Aβ-38 (setting [2]); under 1000 nM in the test with Aβ-38 (setting [1]).

Turning to `CC(=O)N(Cc1cc(F)cc(F)c1)CC1CC(C)C2C(O1)C(O)C1(C)C3CCC4C(C)(C)C(O)CCC45CC35CCC21C` (centres unmarked) [drawing 1211], the IC50 with Aβ-40 (read-out: 50% reduction value) was over 10000 nM; in the test with Aβ-42 (read-out: 50% reduction value) it was 1000 to 10000 nM; with Aβ-38 (read-out: 50% reduction value), 1000 to 10000 nM.

On to `C[C@@H]1CC(C(=O)O)OC2[C@H]1[C@@]1(C)CC[C@@]34C[C@@]35CC[C@H](OC3CN(C(=O)CC6CC6)CCO3)C(C)(C)[C@@H]5CCC4[C@]1(C)[C@H]2O` (some centres unmarked), for which the IC50 is over 10000 nM in the test on Aβ-40 (setting [1]), 1000 to 10000 nM in the test on Aβ-42 (setting [1]) and over 10000 nM with Aβ-38 (setting [1]).

In the case of `COC(=O)N(C)CC1C[C@@H](C)[C@H]2C(O1)[C@H](O)[C@@]1(C)C3CC[C@H]4C(C)(C)[C@@H](O)CC[C@@]45C[C@@]35CC[C@]21C` (some centres unmarked), the IC50 in the test with Aβ-40 (setting [2]) is over 10000 nM; in the test on Aβ-38 (setting [2]), 1000 to 10000 nM. Moreover, the inhibition at 20 µM with Aβ-42 (Homo sapiens, Aβ-42, 20 μM) is 25 to 75%.

As for `CCO[C@@H](C1C[C@@H](C)[C@H]2C(O1)[C@H](O)[C@@]1(C)C3CC[C@H]4C(C)(C)C(O[C@H]5CN(C6CCOCC6)CCO5)CC[C@@]45C[C@@]35CC[C@]21C)C(C)(C)O` (some centres unmarked), the IC50 in the test with Aβ-40 (setting [2]) was 1000 to 10000 nM; with Aβ-40 (setting [1]) it was 1000 to 10000 nM; in the test on Aβ-42 (setting [2]), under 1000 nM; with Aβ-42 (setting [1]), under 1000 nM; in the test with Aβ-38 (setting [2]), under 1000 nM; in the test with Aβ-38 (setting [1]) it was under 1000 nM.

For the compound `CC(=O)O[C@@H]([C@H]1C[C@@H](C)C2C(O1)[C@H](O)[C@@]1(C)[C@@H]3CC[C@H]4C(C)(C)[C@@H](OC5CN(CC(N)=O)CCO5)CC[C@@]45C[C@@]35CC[C@]21C)C(C)(C)O` (some centres unmarked) [drawing 1198], the inhibition at 20 µM in the test on Aβ-40 (Homo sapiens, Aβ-40, 20 μM) lay in the range of 25 to 75%. Further, the IC50 with Aβ-42 (setting [2]) was under 1000 nM; in the test with Aβ-42 (setting [1]), 1000 to 10000 nM; in the test with Aβ-38 (setting [2]) it was under 1000 nM.

For the compound `C[C@@H]1CC(COC(=O)N(C)C)OC2[C@H]1[C@@]1(C)CC[C@@]34C[C@@]35CC[C@H](O)C(C)(C)[C@@H]5CCC4[C@]1(C)[C@H]2O` (some centres unmarked), the IC50 in the test on Aβ-40 (setting [2]) was over 10000 nM. Also, the inhibition at 20 µM in the test with Aβ-40 (Homo sapiens, Aβ-40, 20 μM) was in the range of 25 to 75%; with Aβ-42 (Homo sapiens, Aβ-42, 20 μM), 25 to 75%. In the test on Aβ-38 (Homo sapiens, Aβ-38, 4 μM), the inhibition at 4 µM was 25 to 75%.
